Values quoted from earlier work, collected in US20230285276A1, “Implantable Medical Device for the Delivery of Aromatase Inhibitor” (Celanese EVA Performance Polymers LLC, priority 2022, published 2023).

Tests used:
circulating estrogen = settings: postmenopausal women
[1] = tested on: adrenal biosynthesis of corticosteroids or aldosterone; settings: in vivo

solubility in N, N-dimethylformamide (N, N-dimethylformamide, descriptive term): freely soluble
solubility in methanol (methanol, descriptive term): soluble
solubility in water (descriptive term) (water): practically insoluble
SMILES: C=C1C[C@@H]2[C@H](CC[C@]3(C)C(=O)CC[C@@H]23)[C@@]2(C)C=CC(=O)C=C12 [Exemestane, 6-methylenandrosta-1,4-diene-3,17-dione]
circulating estrogen concentration (circulating estrogen): lowers
effect on adrenal biosynthesis of corticosteroids or aldosterone [1]: no detectable effect
